The source of these data is patent US9598459B2, “Pharmaceutical compositions and methods” (priority 2015, dated 2017).

The subject of one data set is MNV MNV-1. Put plainly: Murine norovirus (MNV-1) antiviral screen in RAW267.4. The format is cell-based. The note with it: MNV-1, RAW267.4, Example 11; for pEC50: unit from Conc. Range.
Another data set concerns RAW267.4. Put plainly: Toxicity in RAW267.4 cells (neutral red). The note with it: Neutral Red (Toxicity), Example 11.
Data set [1] concerns Norwalk virus (replicon) GT1. The data set is described as follows: Norwalk virus replicon (GT1) in HG23, RNA hybridization. The format is cell-based, Norwalk virus (human norovirus). In general terms: A replicon is a self-replicating genome or part of one, used to study replication in cells.
A short description of data set [2]: Toxicity in RAW267.4 cells (neutral red). Conditions: mouse, RAW267.4 cells, CC50, Neutral Red (Toxicity), Example 11.
Data set [3] deals with Hepatitis C virus (replicon) clone B (genotype 1a). The data set is described as follows: HCV genotype 1a HuH-7 clone B subgenomic replicon RNA replication. The format is cell-based, human hepatitis C virus. Conditions: 10 μM.
The nature of data set [4]: in vitro. Conditions: human.
Data set [5] deals with cellular ribosomal RNA (rRNA) synthesis. Put plainly: Cellular ribosomal RNA synthesis in HCV replicon cells (TaqMan RT-qPCR). It is filed as cell-based. Conditions: 10 μM.
The nature of another data set: Cytotoxicity on CCRF-CEM. Conditions: human, CCRF-CEM cells, CC50, Cytotoxicity control, CCRF-CEM, CellTiter MTS.
Data set [6] can be described thus: in vitro. Conditions: African green monkey, CC50.
A short description of data set [7]: Cytotoxicity control on HepG2 (CellTiter MTS). Conditions: human, HepG2 cells.
Data set [8] is described as follows: in vitro. Conditions: human. The source holds these as a separate data set.
The subject of another data set is OM-10.1 cells. Put plainly: Toxicity in OM-10.1 (Cell Titer 96). Conditions: for TOXICITY VALUES (Cell Titer 96): SAMPLE 1-3, MEAN.
Data set [9] is described as follows: Toxicity in OM-10.1 (Cell Titer 96). Conditions: human, OM-10.1 cells.
The subject of a further data set is HIV-1 LAV. Put plainly: Inhibition of inducible HIV-1 LAV replication in OM-10.1 (RT values). It is filed as cell-based, human immunodeficiency virus type 1. The note with it: for RT Values: SAMPLE 1-3, MEAN.
[10] abbreviates: RAW267.4, Neutral Red (Cytopathology).
Where [11] appears, read: Norwalk virus, GT1, HG23, Norwalk virus (replicon) GT1, HG23, Table 10.
Setting [12] is: Human immunodeficiency virus 1, OM-10.1.

pEC50, pIC50: −log10 of the molar value. Where “and” joins values, the source holds several entries; their conditions need not be identical. Equal entries are not always repeated.

One may read the EC90 as the concentration at which the effect reaches the 90% level. Read a high EC90 as a need for much substance. Usually pEC50 stands for −log10 of the EC50, conventionally taken in molar units. A low value points to a large EC50. What is called pIC50 is −log10 of the IC50, conventionally taken in molar units. A low value points to a large IC50. In general, IC90 refers to the concentration at which the effect reaches the 90% level. Higher therefore signals a need for much substance.

Take `CC#CC1(O)CCC2C3CCC4=CC(=NNC(=S)Nc5ccccc5)CCC4=C3C(c3ccc4c(c3)OCO4)CC21C.CC#CC1(O)CCC2C3CCC4=CC(=O)CCC4=C3C(c3ccc4c(c3)OCO4)CC21C` (mixture of isomers) [PT156, 1/17(11β,17β)-17-Hydroxy-11-[3,4-(methylenedioxy)phenyl]-17-(1-propyn-1-yl)estra-4,9-dien-3-one (ORG34517)×(2EZ)-2-{(11β,17β)-17-hydroxy-11-[3,4-(methylenedioxy)phenyl]-17-(1-propyn-1-yl)estra-4,9-dien-3-ylidene}-N-phenylhydrazinecarbothioamide [74.1% (E), 25.9% (Z)] 11/17hydrate]: the EC90 in the data set on MNV MNV-1 (Neutral Red (Cytopathology)) is 290 nM; in [1] (RNA Hybridization (Replicon), NV GT1, HG23, Example 10), more than 100000 nM. Also, the pEC50 was 7.04 with MNV MNV-1 (Neutral Red (Cytopathology)) and less than 4.00 in data set [1] (RNA Hybridization (Replicon), NV GT1, HG23, Example 10, unit from Conc. Range). In addition, the CC50 is 33000 nM with RAW267.4 and more than 100000 nM with HG23.

Consider `C[C@@]1(O)[C@H](O)[C@@H](CO)O[C@H]1n1ccc(N)nc1=O` [2′-C-methylcytidine (RS-446), 2′-C-methylcytidine, reference compound], for which the concentration for an effect of 90% (EC90) with MNV MNV-1 (setting [10]) was found to be 3100 nM; in [1] (setting [11]), 18000 nM; in [1] (Norwalk virus, GT1, HG23, RNA Hybridization (Replicon), NV GT1, HG23, Example 10) it was 19000 nM. Besides, the pEC50 is 6.00 with MNV MNV-1 (setting [10]); 5.16 in data set [1] (setting [11]); 5.19 in data set [1] (Norwalk virus, GT1, HG23, RNA Hybridization (Replicon), NV GT1, HG23, Example 10, unit from Conc. Range). The CC50 in data set [2] was more than 30000 nM; in “in vitro [4]”, more than 300000 nM. In data set [3], the “TaqMan RT-qPCR threshold cycle value difference (ΔCT) of HCV replicon RNA synthesis” value stood at 5.72. For the same molecule, in data set [3] (HuH-7 clone B), the “Inhibition of HCV replicon RNA syntheses at the fixed concentration of 10 μM of the test compound” value was 98.08%. For the same molecule, in [5], the “Inhibition of cellular ribosomal RNA (rRNA) synthesis at the fixed concentration of 10 μM of the test compound” value was determined as 31.09%.

In the case of `C[C@@H]1C[C@@H]([C@H](O)CC2CC(=O)NC(=O)C2)C(=O)[C@@H](C)C1` [Cycloheximide], the CC50 came to 100 nM in the data set “Cytotoxicity on CCRF-CEM”, 200 nM in “in vitro [6]”, 600 nM in data set [7] and 500 nM in “in vitro [8]”.

On to `O=c1c2ccccc2n2nnc3ccc(NCCCN4CCN(CCCNc5ccc6nnn7c8ccccc8c(=O)c5c67)CC4)c1c32` [Temacrazine (TMZ)], for which the “% CC” value with OM-10.1 cells (0.10 nM) is on record as 108.4%; in the data set on OM-10.1 cells (1.00 nM) it was 109.3%; in the data set with OM-10.1 cells (3.16 nM), 126.3%; in the data set with OM-10.1 cells (10.0 nM), 137.0%; with OM-10.1 cells (31.6 nM) it was 138.1%; with OM-10.1 cells (100 nM), 138.2%. For the same molecule, the “% CC” value in the data set on OM-10.1 cells (316 nM) is recorded as 136.7%; in the data set on OM-10.1 cells (1000 nM), 129.9%. Besides, the “TOXICITY VALUES (Cell Titer 96)” value was 0.727 O.D. @ 490/650 nm and 0.895 O.D. @ 490/650 nm and 0.621 O.D. @ 490/650 nm in the data set with OM-10.1 cells (0.10 nM); 0.781 O.D. @ 490/650 nm and 0.744 O.D. @ 490/650 nm and 0.736 O.D. @ 490/650 nm in the data set on OM-10.1 cells (1.00 nM); 0.830 O.D. @ 490/650 nm and 0.933 O.D. @ 490/650 nm and 0.849 O.D. @ 490/650 nm with OM-10.1 cells (3.16 nM); 0.882 O.D. @ 490/650 nm and 0.999 O.D. @ 490/650 nm and 0.954 O.D. @ 490/650 nm in the data set on OM-10.1 cells (10.0 nM); 0.967 O.D. @ 490/650 nm and 0.902 O.D. @ 490/650 nm and 0.988 O.D. @ 490/650 nm in the data set on OM-10.1 cells (31.6 nM); 0.917 O.D. @ 490/650 nm and 0.990 O.D. @ 490/650 nm and 0.952 O.D. @ 490/650 nm in the data set with OM-10.1 cells (100 nM). The “TOXICITY VALUES (Cell Titer 96)” value in the data set on OM-10.1 cells (316 nM) is 0.977 O.D. @ 490/650 nm and 1.037 O.D. @ 490/650 nm and 0.813 O.D. @ 490/650 nm; in the data set on OM-10.1 cells (1000 nM) it was 0.897 O.D. @ 490/650 nm and 0.910 O.D. @ 490/650 nm and 0.879 O.D. @ 490/650 nm. Moreover, the “TC 90%” value with OM-10.1 cells (OM-10.1) is listed as more than 1000 nM. For the same molecule, the “TC 95%” value with OM-10.1 cells (OM-10.1) is more than 1000 nM. Further, the CC50 in the data set on OM-10.1 cells (read-out: TC 50%, OM-10.1) was more than 1000 nM; in data set [9], more than 1000 nM. Moreover, the “% VC” value with HIV-1 LAV (0.10 nM) is 96.8%; in the data set on HIV-1 LAV (1.00 nM), 87.9%; in the data set on HIV-1 LAV (3.16 nM), 92.4%; in the data set on HIV-1 LAV (10.0 nM), 99.6%; in the data set with HIV-1 LAV (31.6 nM), 87.0%; in the data set with HIV-1 LAV (100 nM), 37.5%. Moreover, the “% VC” value with HIV-1 LAV (316 nM) was 22.7%; in the data set with HIV-1 LAV (1000 nM), 2.0%. Further, the “RT Values” with HIV-1 LAV (0.10 nM) is 30380 cpm and 31745 cpm and 26409 cpm; in the data set on HIV-1 LAV (1.00 nM), 32770 cpm and 23041 cpm and 24504 cpm; in the data set with HIV-1 LAV (3.16 nM), 30588 cpm and 25259 cpm and 28648 cpm; in the data set with HIV-1 LAV (10.0 nM), 27453 cpm and 31623 cpm and 31990 cpm; with HIV-1 LAV (31.6 nM), 25515 cpm and 24677 cpm and 29321 cpm; in the data set with HIV-1 LAV (316 nM) it was 6512 cpm and 5272 cpm and 8986 cpm. This molecule also gave a pEC50 in the data set with HIV-1 LAV (Human immunodeficiency virus 1) of 7.15. Besides, the EC90 in the data set with HIV-1 LAV (Human immunodeficiency virus 1) came out at 640 nM. The pIC50 in the data set with HIV-1 LAV (setting [12]) is 7.13. In the data set on HIV-1 LAV (setting [12]), this molecule yielded an IC90 of 641 nM. In addition, in the data set on HIV-1 LAV (OM-10.1), the “IC 95%” value is given as 847 nM. Further, in the data set on HIV-1 LAV (OM-10.1, Table 7), the “Selectivity Index (CC50/EC50)” value is listed as more than 0.13.
